Measured values: patent US20150368220A1, “PHARMACEUTICAL COMPOSITION FOR TREATING OR PREVENTING STRESS URINARY INCONTINENCE OR MIXED URINARY INCONTINENCE, AND METHOD FOR SCREENING COMPOUND COMPRISED IN SAID PHARMACEUTICAL COMPOSITION” (Astellas Pharma Inc., priority 2012, published 2015)

Legend:
human MT1 receptor = target: T1, human MT1 receptor (Homo sapiens, UniProt P48039); test: Intracellular Ca2+ concentration by FLIPR in human MT1 receptor expressing cells (Example 2); format: cell-based; conditions: human MT1 receptor expressing HEK293 cells, 10^-5 M to 10^-12 M, FIGS. 2 and 4
T1 construct: expressed in transfected cells; vector pCDNA3.1/Zeo; co-transfected with a Gq/i chimeric G protein expression vector
T1 sequence (P48039 whole entry): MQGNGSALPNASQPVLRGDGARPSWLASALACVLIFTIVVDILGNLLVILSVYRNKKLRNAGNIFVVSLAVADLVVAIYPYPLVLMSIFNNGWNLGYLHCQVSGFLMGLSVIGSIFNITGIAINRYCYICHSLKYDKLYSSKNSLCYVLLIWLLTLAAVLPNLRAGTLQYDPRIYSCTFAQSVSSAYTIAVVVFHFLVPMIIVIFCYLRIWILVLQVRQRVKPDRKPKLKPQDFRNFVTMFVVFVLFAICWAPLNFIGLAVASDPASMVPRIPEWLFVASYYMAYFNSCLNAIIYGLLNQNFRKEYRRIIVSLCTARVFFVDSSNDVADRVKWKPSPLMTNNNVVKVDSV
Protocol: (§1) The expression vectors for human MT1 and MT2 receptors were introduced into HEK293 cells, together with a Gq/i chimeric G protein expression vector, respectively. The incorporation was carried out in accordance with instructions, using a Lipofectoamine (registered trademark) 2000 Reagent (Invitrogen Inc.). Using Zeocin and hygromycin as a resistant agent, the cells were cultured for 15 days in the presence of 0.02 mg/mL and 0.05 mg/mL of the agents, respectively, thereby acquiring a drug-resistant clone.
(§2) The respective stably expressing cells were dispensed into 96 wells in a poly-D-lysine-coated plate (Falcon) the day before the experiment to give 40,000 cells/well, and cultured in a DMEM (Invitrogen Inc.) medium containing 10% FBS at 37° C. and 5% CO2 overnight. The medium was replaced with a loading buffer (a washing solution containing 4 μM Fluo-4AM (Dojindo Co.) (Hank's balanced salt solution (HBSS), 20 mM HEPES-NaOH, 2.5 mM probenecid)) and cultured at 37° C. and 5% CO2 for 1 hour.

human MT2 receptor = target: T2, human MT2 receptor (Homo sapiens, UniProt P49286); test: Intracellular Ca2+ concentration by FLIPR in human MT2 receptor expressing cells (Example 2); format: cell-based; conditions: human MT2 receptor expressing HEK293 cells, 10^-5 M to 10^-12 M, FIGS. 3 and 5
T2 construct: expressed in transfected cells; vector pCDNA3.1/Zeo; co-transfected with a Gq/i chimeric G protein expression vector
T2 sequence (P49286 1-362): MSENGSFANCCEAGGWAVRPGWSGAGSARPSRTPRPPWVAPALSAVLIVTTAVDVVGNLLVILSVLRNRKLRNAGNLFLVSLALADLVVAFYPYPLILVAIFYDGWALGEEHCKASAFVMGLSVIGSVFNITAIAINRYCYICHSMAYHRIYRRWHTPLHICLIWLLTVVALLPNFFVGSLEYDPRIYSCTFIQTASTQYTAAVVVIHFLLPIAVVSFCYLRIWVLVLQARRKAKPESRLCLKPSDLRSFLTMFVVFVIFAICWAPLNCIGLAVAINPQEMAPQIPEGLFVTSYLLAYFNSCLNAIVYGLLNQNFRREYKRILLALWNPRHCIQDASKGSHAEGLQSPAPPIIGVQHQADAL
Protocol: as §1, §2

isolated urethra = test: Urethra contracting action using isolated urethra (Example 3); conditions: isolated urethra of SD female rat, cumulative 10^-5 M to 10^-12 M, FIGS. 6 and 7
Protocol: The urethra was isolated from an SD female rat having a body weight of 100 g to 500 g. The isolated urethra was incised vertically and then made into strip-shaped specimens having a width of about 3 mm. The specimens were suspended in a 10 mL tissue bus filled with a Krebs—Henseleit solution (pH 7.4) in the circular muscle direction. The Krebs—Henseleit solution was aerated at 95% O2 and 5% CO2, and warmed at 37° C. The resting tension was set to 0.5 g and the isometric contraction was recorded. After the resting tension was stabilized, a 10 μM phenylephrine solution was added thereto to cause contraction.

SD female rat [1] = test: Effect on urethral pressure, microchip method (Example 4); format: in vivo; conditions: intravenous, anesthetized SD female rat, FIGS. 8 and 9
From the text: An SD female rat was anesthetized with urethane and allowed to undergo laparotomy, and then a catheter was mounted in the bladder dome for urine leakage in the bladder. Further, a catheter was mounted in the femoral vein for the administration of a compound and a catheter was mounted in the carotid artery for the measurement of blood pressure described in Example 6 as described later. […] The catheter mounted in the carotid artery was attached to a pressure transducer and the blood pressure was measured.

SD female rat [2] = test: Effect on urethral pressure, perfusion method (Example 4); format: in vivo; conditions: intravenous, anesthetized SD female rat, FIGS. 10 to 14
Protocol: An SD female rat was anesthetized with urethane and allowed to undergo laparotomy, the bladder dome was then incised, and a catheter having a barb at the tip was inserted toward the urethra from the bladder, and ligated and fixed such that the tip of the catheter was positioned around the proximal urethra. Physiological saline was injected at a predetermined flow rate into the urethra through the catheter and the urethral pressure was measured with a pressure transducer. After the urethral pressure was stabilized, compounds dissolved in physiological saline, or physiological saline containing 5% N,N-dimethylacetamide(DMA) and 0.5% Cremophor were intravenously administered at a dose of 1 μg/kg, 10 μg/kg, 100 μg/kg, or 1000 μg/kg and a change in the urethral pressure was measured.

isolated bladder = test: Isolated bladder contraction (Example 6); conditions: isolated bladder of SD female rat, cumulative addition
From the text: (§3) (1) The bladder and uterus were isolated from an SD female rat having a body weight of 100 g to 500 g. For the isolated bladder, the parts below the parietal region and the triangular portion were resected to make only the body portion into a ring state, and further, one side of the tissue in the ring state was cut to a band-shaped tissue. The bladder in the band shape was isolated parallel to the median axis of the bladder to prepare strip-shaped specimens having a length of about 10 mm and a width of about 3 mm. The specimens were suspended in a 10 mL tissue bus filled with a Krebs-Henseleit solution (pH 7.4) at a resting tension of 0.5 g and the isometric contraction was recorded. For the isolated uterus, the edge portion of the uterus was cut and incised vertically, whereby a strip-shaped specimen having a width of about 6 mm was then prepared. The specimens were suspended in a 10 mL tissue bus filled with a Krebs—Henseleit solution (pH 7.4) at a resting tension of 0.5 g and the isometric contraction was recorded. […] For the bladder specimen, after the resting tension was stabilized, a 60 mM KCl solution or a 10 μM carbachol solution was added thereto to cause contraction. The specimens were washed and stabilized, and then the compounds were cumulatively administered.

isolated uterus = test: Isolated uterus contraction (Example 6); conditions: isolated uterus of SD female rat
From the text: as §3

SD female rat [3] = test: Effect on rat blood pressure (Example 6); format: in vivo; conditions: intravenous, at a dose for increasing the urethral pressure, FIGS. 21 and 22
From the text: An SD female rat was anesthetized with urethane and allowed to undergo laparotomy, and then a catheter was mounted in the bladder dome for urine leakage in the bladder. Further, a catheter was mounted in the femoral vein for the administration of a compound and a catheter was mounted in the carotid artery for the measurement of blood pressure described in Example 6 as described later. A microchip transducer catheter (Milar Instruments) was inserted toward the bladder from the external urethral meatus for the measurement of the urethral pressure, and fixed such that the transducer portion was positioned around the portion at which the urethral pressure was maximized (10.0 mm to 15.0 mm from the external urethral meatus). The catheter mounted in the carotid artery was attached to a pressure transducer and the blood pressure was measured.
(2) In the experiment for measuring the urethral pressure in Example 4, the blood pressure was measured simultaneously. After the urethral pressure and the blood pressure were stabilized, the compound was administered and a change in the blood pressure was measured.

intracellular Ca^2+ concentration (melatonin receptor activating action) (human MT1 receptor): increased | intracellular Ca^2+ concentration (melatonin receptor activating action) (human MT2 receptor): increased
Structure (SMILES): CCC(=O)NCC[C@@H]1CCc2ccc3c(c21)CCO3 [ramelteon, (S)-N-[2-(1,6,7,8-tetrahydro-2H-indeno[5,4-b]furan-8-yl)ethyl]propionamide]
urethra contracting action (isolated urethra): contracted the isolated urethra | urethral pressure increasing action (SD female rat [1]): increased the urethral pressure | urethral pressure increasing action (SD female rat [2]): increased the urethral pressure | contraction action on the isolated bladder (isolated bladder): did not exhibit a contraction action | effect on the rhythmic contraction of the isolated uterus (isolated uterus; FIG. 20): did not have an effect | contraction action on the isolated uterus (isolated uterus; cumulative 10^-5 M to 10^-11 M): did not exhibit a contraction action | effect on blood pressure (mean blood pressure) (SD female rat [3]): did not increase the blood pressure
